{
  "source": "patent US20230069963A1",
  "about": "“PYRAZOLO[1,5-A]PYRIMIDINE MACROCYCLIC COMPOUND” (priority 2018, published 2023)",
  "data": [
    {"test_system": "RSV ATCC VR-1540 (A2)", "experiment": "microbe, parasite or virus in culture", "format": "cell-based", "details": "Hep2 cells, incubated for 4 days, CPE detected with XTT assay (absorbance 450 nm); read-out: EC50 (nmol/L) against RSV A2 strain", "units": {"EC50": "nmol/L"}, "values": [
      {"compound": "(18aS)-2-fluoro-13-(cis-3-hydroxycyclobutyl)-11-methyl-8,9,10,11,19,20,21,22-octahydro-l 8aH,24H-18,15-(metheno)pyrido[2,1-l]pyrimido[6,1-h][1,4,7,9,10,13]benzoxapentaazacyclohexadecine-7,24(6H)-dione [Example 109]", "EC50": 1.14},
      {"compound": "(18aS)-13-(azetidin-1-yl)-2-fluoro-7-(hydroxymethyl)-11-methyl-6,7,8,9,10,11,19,20,21,22-decahydro-18aH,24H-18,15-(metheno)pyrido[2,1-l]pyrimido[6,1-h][1,4,7,9,10,13]benzoxapentaazacyclohexadecin-24-one [Example 146]", "EC50": 20.8},
      {"compound": "(23aS)-18-(azetidin-1-yl)-8-fluoro-16-methyl-1,3,4,11,12,13,14,15,16,23a-decahydro-2H,6H-23,20-(metheno)pyrido[1,2-b]pyrimido[1,6-f][2,5,6,8,11]benzopentaazacyclopentadecin-6-one [Example 148]", "EC50": 28.9}
    ]},
    {"test_system": "RSV ATCC VR-1540 (A2)", "experiment": "microbe, parasite or virus in culture", "format": "cell-based", "details": "human respiratory syncytial virus, HEp-2, 96 h; Hep2 cells, incubated for 4 days, CPE detected with XTT assay (absorbance 450 nm); read-out: EC50 (nmol/L) against RSV A2 strain", "units": {"EC50": "nmol/L"}, "values": [
      {"compound": "Cc1c(N2CCC(N)C2)nc2cc3nn2c1N(C)CCCCOc1ccc(Cl)cc1C(=O)N1CCCCC31", "note": "[Example 286, (23aS)-18-[(3S)-3-aminopyrrolidin-1-yl]-8-chloro-16,17-dimethyl-1,3,4,13,14,15,16,23a-octahydro-2H,6H,12H-23,20-(metheno)pyrido[2,1-k]pyrimido[6,1-g][1,6,8,9,12]benzoxatetraazacyclopentadecin-6-one]", "EC50": 20.8},
      {"compound": "CN1CCOCCOc2ccc(Cl)cc2C(=O)N2CCCCC2c2cc3nc(N4CCC(N)C4)cc1n3n2", "note": "[Example 297, (18aS)-13-[(3S)-3-aminopyrrolidin-1-yl]-2-chloro-11-methyl-6,7,10,11,19,20,21,22-octahydro-9H,18aH,24H-18,15-(metheno)pyrido[2,1-l]pyrimido[6,1-h][1,4,7,9,10,13]benzodioxatetraazacyclohexadecin-24-one]", "EC50": 8.74},
      {"compound": "Cc1c(N2CCC(N)C2)nc2cc3nn2c1NCCOCCOc1ccc(Cl)cc1C(=O)N1CCCCC31", "note": "[Example 299, (18aS)-13-[(3S)-3-aminopyrrolidin-1-yl]-2-chloro-12-methyl-6,7,10,11,19,20,21,22-octahydro-9H,18aH,24H-18,15-(metheno)pyrido[2,1-l]pyrimido[6,1-h][1,4,7,9,10,13]benzodioxatetraazacyclohexadecin-24-one]", "EC50": 9.69},
      {"compound": "CCc1ccc2c(c1)C(=O)N(C)[C@@H](CC)c1cc3nc(N4CC[C@H](N)C4)cc(n3n1)N(C)CCCS(=O)(=O)N2", "note": "[Example 303, (17S)-3-[(3S)-3-aminopyrrolidin-1-yl]-13,17-diethyl-5,16-dimethyl-7,8,16,17-tetrahydro-5H-18,1-(metheno)-9λ^6-pyrimido[6,1-g][2,1,6,8,9,12]benzothiapentaazacyclopentadecine-9,9,15 (6H,10H)-trione]", "EC50": 10.5},
      {"compound": "CCN1CCCS(=O)(=O)Nc2ccc(F)cc2C(=O)N2CCCC[C@H]2c2cc3nc(N4CCC4)cc1n3n2", "note": "[Example 318, (23aS)-18-(azetidin-1-yl)-16-ethyl-8-fluoro-1,3,4,13,14,15,16,23a-octahydro-2H,6H-23,20-(metheno)-12λ^6-pyrido[2,1-k]pyrimido[6,1-g][2,1,6,8,9,12]benzothiapentaazacyclopentadecine-6,12,12(11H)-trione]", "EC50": 22.7},
      {"compound": "Cc1c(NCCN)nc2cc3nn2c1N(C)CCCS(=O)(=O)Nc1ccc(Cl)cc1C(=O)N1CCCC[C@@H]31", "note": "[Example 327, (23aS)-18-[(2-aminoethyl)amino]-8-chloro-16,17-dimethyl-1,3,4,13,14,15,16,23a-octahydro-2H,6H-23,20-(metheno)-12λ^6-pyrido[2,1-k]pyrimido[6,1-g][2,1,6,8,9,12]benzothiapentaazacyclopentadecine-6,12,12(11H)-trione]", "EC50": 1.72},
      {"compound": "Cc1nnc2n1CCN(C)c1cc(N3CC(N)C3)nc3cc(nn13)[C@@H]1CCCCN1C(=O)c1cc(Cl)ccc1OC2", "note": "[Example 328, (20aS)-15-(3-aminoazetidin-1-yl)-2-chloro-9,13-dimethyl-12,13,21,22,23,24-hexahydro-6H, 11H,20aH,26H-20,17-(metheno)pyrido[2,1-l]pyrimido[6,1-h][1,2,4]triazolo[3,4-c][1,4,7,9,10,13]benzoxapentaazacyclohexadecin-26-one]", "EC50": 9.48},
      {"compound": "Cc1nnc2n1CCN(C)c1cc(N3CCC3)nc3cc(nn13)[C@@H]1CCCCN1C(=O)c1cc(Cl)ccc1OC2", "note": "[Example 329, (20aS)-15-(azetidin-1-yl)-2-chloro-9,13-dimethyl-12,13,21,22,23,24-hexahydro-6H,11H,20aH,26H-20,17-(metheno)pyrido[2,1-l]pyrimido[6,1-h][1,2,4]triazolo[3,4-c][1,4,7,9,10,13]benzoxapentaazacyclohexadecin-26-one]", "EC50": 1.61},
      {"compound": "CN1CCc2cn(nn2)Cc2ccc(Cl)cc2C(=O)N2CCCC[C@H]2c2cc3nc(N4CC(N)C4)cc1n3n2", "note": "[Example 330, (19aS)-14-(3-aminoazetidin-1-yl)-2-chloro-12-methyl-11,12,20,21,22,23-hexahydro-10H,19aH-6,9:19,16-di(metheno)pyrido[2,1-m]pyrimido[6,1-i][2,3,4,8,10,11,14]benzoheptaazacycloheptadecin-25(5H)-one]", "EC50": 19.8},
      {"compound": "CN1CCCC(=O)NCC(C)(c2ccc(F)cc2)C(=O)N2CCCC[C@H]2c2cc3nc(N4CC(N)C4)cc1n3n2", "note": "(stereo partly drawn) [Example 371, (18aS)-3-(3-aminoazetidin-1-yl)-12-(4-fluorophenyl)-5,12-dimethyl-7,8,11,12,16,17,18,18a-octahydro-5H,15H-19,1-(metheno)pyrido[1,2-m]pyrimido[1,6-b][1,2,4,9,13]pentaazacyclopentadecine-9,13(6H,10H)-dione]", "EC50": 12.8},
      {"compound": "CN1CCCCS(=O)(=O)NC(C)(c2ccc(F)cc2)C(=O)N2CCCC[C@H]2c2cc3nc(N4CC(O)C4)cc1n3n2", "note": "(stereo partly drawn) [Example 377, (18aS)-12-(4-fluorophenyl)-3-(3-hydroxyazetidin-1-yl)-5,12-dimethyl-6,7,8,9,11,12,16,17,18,18a-decahydro-5H,15H-19,1-(metheno)-10λ^6-pyrido[1,2-e]pyrimido[1,6-i][1,2,5,8,9,11]thiapentaazacyclopentadecine-10,10,13-trione]", "EC50": 22.7},
      {"compound": "CN1CCCCOCC(C)(c2cccnc2)C(=O)N2CCCCC2c2cc3nc(N4CC(N)C4)cc1n3n2", "note": "[Example 380, (18aS)-3-(3-aminoazetidin-1-yl)-5,12-dimethyl-12-(pyridin-3-yl)-6,7,8,9,11,12,16,17,18,18a-decahydro-5H,13H,15H-19,1-(metheno)pyrido[,2-e]pyrimido[1,6-i][1,5,8,9,11]oxatetraazacyclopentadecin-13-one]", "EC50": 8.77}
    ]},
    {"test_system": "F protein D486N mutant strain of RSV A2 strain", "experiment": "not given", "format": "cell-based, respiratory syncytial virus (RSV)", "details": "Hep2 cells, incubated for 4 days, CPE detected with XTT assay (absorbance 450 nm); read-out: EC50 (nmol/L) against F protein D486N mutant strain of RSV A2 strain", "units": {"EC50": "nmol/L"}, "values": [
      {"compound": "CC1CCNC(=O)COc2ccc(Cl)cc2C(=O)N2CCCCC2c2cc3nc(C4CC4)cc1n3n2", "note": "(single isomer, unassigned) [Example 124a]", "EC50": 7.23},
      {"compound": "Cc1ccc2c(c1)C(=O)N1CCCCC1c1cc3nc(C4CC4)cc(n3n1)C(C)CCNC(=O)CO2", "note": "(single isomer, unassigned) [Example 126a]", "EC50": 2.05},
      {"compound": "CN1CCNC(C(F)(F)F)COc2ccc(Cl)cc2C(=O)N2CCCCC2c2cc3nc(N4CC(N)C4)cc1n3n2", "note": "(single isomer, unassigned) [Example 339]", "EC50": 4.11},
      {"compound": "CN1CC(=O)NCCOc2ccc(F)cc2C(=O)N2CCCC[C@H]2c2cc3nc(N4CC(N)C4)cc1n3n2", "note": "[Example 37, (18aS)-13-(3-aminoazetidin-1-yl)-2-fluoro-1-methyl-7,8,10,11,19,20,21,22-octahydro-8aH,24H-18,15-(metheno)pyrido[2,1-l]pyrimido[6,1-h][1,4,7,9,10,13]benzoxapentaazacyclohexadecine-9,24(6H)-dione]", "EC50": 10.1},
      {"compound": "CN1CCNC(=O)COc2ccc(Cl)cc2C(=O)N2CCCC[C@H]2c2cc3nc(N4CC(O)C4)cc1n3n2", "note": "[Example 39]", "EC50": 0.867},
      {"compound": "[2H]C([2H])([2H])c1ccc2c(c1)C(=O)N1CCCC[C@H]1c1cc3nc(N4CC(O)C4)cc(n3n1)N(C)CCNC(=O)CO2", "note": "[Example 53, (18aS)-13-(3-hydroxyazetidin-1-yl)-1-methyl-2-trideuteriomethyl-8,9,10,11,19,20,21,22-octahydro-18aH,24H-18,15-(metheno)pyrido[2,1-l]pyrimido[6,1-h][1,4,7,9,10,13]benzoxapentaazacyclohexadecine-7,24(6H)-dione]", "EC50": 1.05},
      {"compound": "CN1CCNC(=O)COc2ccc(F)cc2C(=O)N2CCCC[C@H]2c2cc3nc(C4CC4)cc1n3n2", "note": "[Example 90, (18aS)-13-cyclopropyl-2-fluoro-11-methyl-8,9,10,11,19,20,21,22-octahydro-18aH,24H-18,15-(metheno)pyrido[2,1-l]pyrimido[6,1-h][1,4,7,9,10,13]benzoxapentaazacyclohexadecine-7,24(6H)-dione]", "EC50": 2.8},
      {"compound": "CN1CCNC(=O)COc2ccc(Cl)cc2C(=O)N2CCCCC2c2cc3nc(C4CC(O)C4)cc1n3n2", "note": "[Example 112, (18aS)-2-chloro-13-(trans-3-hydroxycyclobutyl)-11-methyl-8,9,10,11,19,20,21,22-octahydro-18aH,24H-18,15-(metheno)pyrido[2,1-l]pyrimido[6,1-h][1,4,7,9,10,13]benzoxapentaazacyclohexadecine-7,24(6H)-dione]", "EC50": 0.704},
      {"compound": "Cc1ccc2c(c1)C(=O)N1CCCC[C@H]1c1cc3nc(N4CC(O)C4)cc(n3n1)N(C)CCNCCO2", "note": "[Example 171, (18aS)-13-(3-hydroxyazetidin-1-yl)-2,11-dimethyl-6,7,8,9,10,11,19,20,21,22-decahydro-18aH,24H-18,15-(metheno)pyrido[2,1-l]pyrimido[6,1-h][1,4,7,9,10,13]benzoxapentaazacyclohexadecin-24-one]", "EC50": 4.19}
    ]}
  ]
}
